Experimental findings from patent US10030016B2 (Sunesis Pharmaceuticals, Inc., priority 2009, dated 2018) are described below.

Where a name gives a salt, the structure may show the parent alone. Read-outs that look alike come from different tables or passages of the source.

The EC50 is the concentration needed to bring the measured effect to its halfway point. As a reminder, the IC50 is the concentration needed to halve the response being measured. A low value points to greater potency in that assay.

Assay [1] relates to phospho-akt (Thr308) in PC-3 cells. Kind of assay: Inhibition of phospho-akt (Thr308) in PC-3 cells, MSD phospho-akt 308 ELISA kit. The format is cell-based. The following applies: Homo sapiens, 2 hours, no serum, read-out: EC50. Put shortly:
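PC-3 cells were seeded overnight in growth medium with 10% FBS, then exposed to compound serially diluted threefold in serum-free medium for 2 hours. Lysates were captured overnight at 4 degrees on MSD plates and phospho-Akt Thr308 was detected electrochemiluminescently, against DMSO high and 5 μM wortmannin low controls.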
(In general: ELISA stands for enzyme-linked immunosorbent assay.)

Another assay addresses PDK1 (Homo sapiens (Human), UniProt O15530). Kind of assay: PDK1 kinase assay (coupled PDK1/AKT/FAM-crosstide assay, IMAP fluorescence polarization). The format is biochemical. The procedure, abridged:
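Inhibition is derived by 4-parameter fitting of ΔmP from an IMAP fluorescence polarization read of FAM-crosstide (100 nM) phosphorylation. The cascade ran 30 min at 25 °C with 40 μM ATP, using insect-cell GST-PDK1 51-359 (0.75 nM) driving 10 nM unphosphorylated AKT2 140-467-PIFtide fusion.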
(In fluorescence polarisation assays a small probe gives low polarisation when free and higher when bound to something large.)

Setting [2] is: inhibition of P308 Akt in PC-3 cells using MSD.
The mark [3] stands for this setting: inhibition of P308 Akt in PC-3 cells, MSD.
Where [4] appears, read: inhibition of phospo-PDK1 in vitro.
[5] abbreviates: PC-3, 2 h, inhibition of P308 Akt in PC-3 cells using MSD.

Sequence of PDK1 (O15530 51-359): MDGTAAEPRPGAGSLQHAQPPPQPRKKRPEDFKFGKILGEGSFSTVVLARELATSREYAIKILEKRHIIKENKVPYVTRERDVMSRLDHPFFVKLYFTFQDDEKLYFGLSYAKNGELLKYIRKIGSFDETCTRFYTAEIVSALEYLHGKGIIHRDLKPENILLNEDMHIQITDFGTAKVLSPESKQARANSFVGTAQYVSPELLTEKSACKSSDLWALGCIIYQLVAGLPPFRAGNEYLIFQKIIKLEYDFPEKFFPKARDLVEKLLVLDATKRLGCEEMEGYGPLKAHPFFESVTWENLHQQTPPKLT

In the case of `C[C@H](NC(=O)c1cc(C#N)cnc1NCc1ccc(-c2ccc(N)nc2)c(F)c1)c1ccc(F)cc1` [Example 129, (S)-2-(4-(6-aminopyridin-3-yl)-3-fluorobenzylamino)-5-cyano-N-(1-(4-fluorophenyl)ethyl) nicotinamide], the concentration for a half-maximal effect (EC50) in assay [1] (setting [2]) is 1000 to 10000 nM. This compound also gave an IC50 at PDK1 (inhibition of PDK1 in vitro) of 100 to 1000 nM.

As for `C[C@H](NC(=O)c1cc(C#N)cnc1NCc1ccc(-c2cnc(N)c(C(N)=O)c2)cc1)c1ccc(F)cc1` [Example 201, (S)-2-(4-(6-amino-5-carbamoylpyridin-3-yl)benzylamino)-5-cyano-N-(1-(4-fluorophenyl)ethyl)nicotinamide], the concentration giving a half-maximal response (EC50) in assay [1] (setting [2]) is less than 1000 nM. At PDK1 (inhibition of PDK1 in vitro), the IC50 was less than 100 nM.

As to `O=C(NCc1ccc(F)c(F)c1)c1cccnc1NCCOc1ccc2c(c1)[nH]c1ncccc12` [Example 21, 2-(2-(9H-pyrido[2,3-b]indol-7-yloxy)ethylamino)-N-(3,4-difluorobenzyl)nicotinamide], the EC50 in assay [1] (setting [3]) fell in the range of 1000 to 10000 nM. At PDK1 (setting [4]), this compound registered an IC50 of less than 100 nM.

Consider `Nc1n[nH]c2ncc(-c3ccc(CNc4ncc(C(F)(F)F)cc4C(=O)Nc4cccc(C(F)(F)F)c4)cc3)cc12` [Example 294], for which, in assay [1] (setting [2]), the EC50 was 1000 to 10000 nM. Moreover, at PDK1 (inhibition of PDK1 in vitro), the IC50 is less than 100 nM.

In the case of `Nc1cnc(-c2ccc(CNc3ncc(C(F)(F)F)cc3C(=O)NCc3ccc(F)c(F)c3)cc2)cn1` [Example 124, 2-(4-(5-aminopyrazin-2-yl)benzylamino)-N-(3,4-difluorobenzyl)-5-(trifluoromethyl) nicotinamide], the EC50 in assay [1] (setting [2]) was less than 1000 nM. For the same compound, the IC50 on PDK1 (inhibition of PDK1 in vitro) is less than 100 nM.

Consider `C[C@H](NC(=O)c1nc(C#N)cnc1NCC1CCC(c2cn(C)c3ncnc(N)c23)CC1)c1ccc(F)c(F)c1` (stereo partly shown) [Example 339], for which, in assay [1] (setting [5]), the EC50 is more than 10000 nM. Moreover, the IC50 against PDK1 (inhibition of PDK1 in vitro) was in the range of 100 to 1000 nM.

Regarding `CC(=O)Nc1ccc(-c2ccc(CNc3ncc(C#N)cc3C(=O)N[C@@H](C)c3ccc(F)cc3)cc2)cn1` [Example 105, (S)-2-(4-(6-acetamido-pyridin-3-yl)benzylamino)-5-cyano-N-(1-(4-fluorophenyl)ethyl) nicotinamide], the concentration giving a half-maximal response (EC50) in assay [1] (setting [2]) was less than 1000 nM. At PDK1 (inhibition of PDK1 in vitro), this compound had an IC50 of less than 100 nM.

Take `Nc1ncc(-c2ccc(CNc3ncc(C(F)(F)F)cc3C(=O)Nc3ccc(F)cc3)cc2)nc1CCC1CCNC1` (stereo not shown) [Example 76, 2-{4-[5-Amino-6-(2-pyrrolidin-3-yl-ethyl)-pyrazin-2-yl]-benzylamino}-N-(4-fluoro-phenyl)-5-trifluoromethyl-nicotinamide]: in assay [1] (setting [2]), the EC50 was less than 1000 nM. This compound returned an IC50 on PDK1 (inhibition of PDK1 in vitro) of less than 100 nM.

In the case of `C[C@H](NC(=O)c1cc(C#N)cnc1NCc1ccc(-c2cnc(N)c(-c3cccc(O)c3)n2)cc1)c1ccc(F)cc1` [Example 234, 2-{4-[5-Amino-6-(3-hydroxy-phenyl)-pyrazin-2-yl]-benzylamino}-5-cyano-N-[(S)-1-(4-fluoro-phenyl)-ethyl]-nicotinamide], in assay [1] (setting [5]), the EC50 fell in the range of 1000 to 10000 nM. Also, the IC50 at PDK1 (inhibition of PDK1 in vitro) is less than 100 nM.

For the compound `C[C@H](NC(=O)c1nc(C#N)cnc1NCc1ccc(-c2cnc(N)c(CCCO)n2)cc1)c1ccc(F)c(F)c1` [Example 95, 3-{4-[5-Amino-6-(3-hydroxy-propyl)-pyrazin-2-yl]-benzyl-amino}-6-cyano-pyrazine-2-carboxylic acid [(S)-1-(3,4-difluoro-phenyl)-ethyl]-amide], in assay [1] (setting [2]), the EC50 was less than 1000 nM. The IC50 against PDK1 (inhibition of PDK1 in vitro) is less than 100 nM.

For `Nc1ncnc2c1c(-c1ccc(CNc3ncc(C(F)(F)F)cc3C(=O)Nc3ccc(F)cc3)cc1)cn2CCO` [Example 324, 2-(4-(4-amino-7-(2-hydroxyethyl)-7H-pyrrolo [2,3-d]pyrimidin-5-yl)benzylamino)-N-(4-fluorophenyl)-5-(trifluoromethyl)nicotinamide], in assay [1] (setting [2]), the EC50 is less than 1000 nM. At PDK1 (inhibition of PDK1 in vitro), the IC50 was less than 100 nM.

As for `C[C@@H](c1ccc(F)cc1)n1cnc2ccnc(NCc3ccc(-c4cc5c(N)ncnc5cn4)s3)c2c1=O` [Example 7.12, 5-({[5-(4-aminopyrido [3,4-d]pyrimidin-6-yl)thiophen-2-yl]methyl}amino)-3-[(1S)-1-(4-fluorophenyl)ethyl] pyrido[4,3-d]pyrimidin-4(3H)-one], the EC50 in assay [1] (setting [3]) is more than 10000 nM. For the same compound, at PDK1 (setting [4]), the IC50 is more than 5000 nM.

As to `Nc1ncnc2ccc(-c3ccc(CNc4ncc(C(=O)N5CCOCC5)cc4C(=O)NCc4ccc(F)c(F)c4)s3)cc12` [Example 7.24.6, 2-({[5-(4-aminoquinazolin-6-yl)thiophen-2-yl]methyl}amino)-N^3-(3,4-difluorobenzyl)-5-(morpholin-4-ylcarbonyl)pyridine-3-carboxamide], in assay [1] (setting [3]), the EC50 was in the range of 1000 to 10000 nM. On PDK1 (setting [4]), this compound had an IC50 of less than 100 nM.

Take `CCC(C)n1cc(-c2ccc(CNc3ncc(C(F)(F)F)cc3C(=O)Nc3ccc(F)cc3)cc2)c2c(N)ncnc21` (stereo not shown) [Example 441, 2-(4-(4-amino-7-sec-butyl-7H-pyrrolo[2,3-d]pyrimidin-5-yl)benzylamino)-N-(4-fluorophenyl)-5-(trifluoromethyl)nicotinamide]: the EC50 in assay [1] (setting [2]) was more than 10000 nM. At PDK1 (setting [4]), the IC50 was less than 100 nM.

As for `CCOC(=O)Nc1n[nH]c2ncc(-c3ccc(CNc4ncc(C#N)nc4C(=O)N[C@@H](C)c4ccc(F)c(F)c4)cc3)cc12` [Example 36, (S)-ethyl 5-(4-((5-cyano-3-(1-(3,4-difluorophenyl)ethylcarbamoyl)pyrazin-2-ylamino)methyl)phenyl)-1H-pyrazolo[3,4-b]pyridin-3-ylcarbamate], in assay [1] (setting [3]), the EC50 is less than 1000 nM. Also, the IC50 against PDK1 (setting [4]) was less than 100 nM.

On to `CCn1cc(-c2ccc(CNc3ncc(C(F)(F)F)cc3C(=O)Nc3ccc(F)cc3)cc2)c2c(N)ncnc21` [Example 430, 2-(4-(4-amino-7-ethyl-7H-pyrrolo[2,3-d]pyrimidin-5-yl)benzylamino)-N-(4-fluorophenyl)-5-(trifluoromethyl)nicotinamide], for which the EC50 in assay [1] (setting [2]) is 1000 to 10000 nM. This compound also showed an IC50 at PDK1 (inhibition of PDK1 in vitro) of less than 100 nM.

`C[C@H](NC(=O)c1cccnc1NCc1cccc(-c2c[nH]c3ncnc(N)c23)c1)c1ccc(F)c(F)c1` [Example 2.30, (S)-2-(3-(4-amino-7H-pyrrolo[2,3-d]pyrimidin-5-yl)benzylamino)-N-(1-(3,4-difluorophenyl)ethyl) nicotinamide]: the EC50 in assay [1] (setting [3]) is 1000 to 10000 nM. Also, the IC50 at PDK1 (setting [4]) is less than 100 nM.

In the case of `C[C@H](NC(=O)c1cc(I)cnc1NCc1ccc(-c2ccc3ncnc(N)c3c2)s1)c1ccc(F)cc1` [Example 7.21.2, 2-({[5-(4-aminoquinazolin-6-yl)thiophen-2-yl]methyl}amino)-N-[(1S)-1-(4-fluorophenyl)ethyl]-5-iodopyridine-3-carboxamide], the 50% effective concentration (EC50) in assay [1] (setting [3]) is less than 1000 nM. This compound displayed an IC50 on PDK1 (setting [4]) of 100 to 1000 nM.

As to `N#Cc1cccc(NC(=O)c2cc(C(F)(F)F)cnc2NCc2ccc(-c3cnc4[nH]nc(N)c4c3)cc2)c1` [Example 439, 2-(4-(3-amino-1H-pyrazolo[3,4-b]pyridin-5-yl)benzylamino)-N-(3-cyanophenyl)-5-(trifluoromethyl) nicotinamide], the EC50 in assay [1] (setting [2]) fell in the range of 1000 to 10000 nM. The same compound yielded an IC50 at PDK1 (inhibition of PDK1 in vitro) of less than 100 nM.

As to `N#Cc1cnc(NCc2ccc(-c3cnc4[nH]c(=O)[nH]c4c3)cc2)c(C(=O)NCc2ccc(F)c(F)c2)c1` [Example 356, 5-cyano-N-(3,4-difluorobenzyl)-2-(4-(2-oxo-2,3-dihydro-1H-imidazo[4,5-b]pyridin-6-yl)benzylamino)nicotinamide], in assay [1] (setting [2]), the EC50 is less than 1000 nM. On PDK1 (inhibition of PDK1 in vitro), the half-maximal inhibitory concentration (IC50) was less than 100 nM.

For the compound `Nc1ncnc2ccc(-c3csc(CNc4ncccc4C(=O)NCc4ccc(F)c(F)c4)c3)cc12` [Ex. 6.14, 2-({[4-(4-aminoquinazolin-6-yl)thiophen-2-yl]methyl}amino)-N-(3,4-difluoro-benzyl) pyridine-3-carboxamide], in assay [1] (setting [3]), the EC50 fell in the range of 1000 to 10000 nM. The IC50 at PDK1 (setting [4]) was less than 100 nM.

In the case of `C[C@H](NC(=O)c1cccnc1NCc1ccc(-c2ccc3ncnc(N4CCC4)c3c2)s1)c1ccc(F)c(F)c1` [Example 387, 2-{[5-(4-Azetidin-1-yl-quinazolin-6-yl)-thiophen-2-ylmethyl]-amino}-N-[(S)-1-(3,4-difluoro-phenyl)-ethyl]-nicotinamide], the EC50 in assay [1] (setting [2]) fell in the range of 1000 to 10000 nM. The compound also showed an IC50 at PDK1 (inhibition of PDK1 in vitro) of less than 100 nM.

As to `Nc1ncnc2ccc(-c3ccc(CNc4ncccc4C(=O)Nc4ccc(F)c(C(F)(F)F)c4)s3)cc12` [Example 3.51, 2-({[5-(4-aminoquinazolin-6-yl)thiophen-2-yl]methyl}amino)-N-[4-fluoro-3-(trifluoromethyl)phenyl]pyridine-3-carboxamide (TFA salt)], the concentration for a half-maximal effect (EC50) in assay [1] (setting [3]) fell in the range of 1000 to 10000 nM. The 50% inhibitory concentration (IC50) against PDK1 (setting [4]) fell in the range of 1000 to 5000 nM.

With `C[C@H](NC(=O)c1cc(C#N)cnc1NCc1ccc(-c2cnc(N)c(-c3cccc(N)c3)n2)cc1)c1ccc(F)cc1` [Example 237, 2-{4-[5-Amino-6-(3-amino-phenyl)-pyrazin-2-yl]-benzylamino}-5-cyano-N-[(S)-1-(4-fluoro-phenyl)-ethyl]-nicotinamide], the EC50 in assay [1] (setting [2]) is less than 1000 nM. The compound further gave an IC50 on PDK1 (inhibition of PDK1 in vitro) of less than 100 nM.

Consider `Cn1nc(Nc2ncccc2C(=O)NCc2ccc(F)c(F)c2)c2cc(-c3c[nH]c4ncccc34)ccc21` [Example 14.1, N-(3,4-difluorobenzyl)-2-(1-methyl-5-(1H-pyrrolo[2,3-b]pyridin-3-yl)-1H-indazol-3-ylamino)nicotinamide], for which, in assay [1] (setting [3]), the EC50 lay within 1000 to 10000 nM. For the same compound, the IC50 against PDK1 (setting [4]) is less than 100 nM.

`CN(C(=O)c1cc(C(F)(F)F)cnc1NCc1ccc(-c2cnc3[nH]nc(N)c3c2)cc1)c1ccc(F)cc1` [Example 290, 2-(4-(3-amino-1H-pyrazolo [3,4-b]pyridin-5-yl)benzylamino)-N-(4-fluorophenyl)-N-methyl-5-(trifluoromethyl) nicotinamide]: the EC50 in assay [1] (setting [2]) lay within 1000 to 10000 nM. The half-maximal inhibitory concentration (IC50) at PDK1 (inhibition of PDK1 in vitro) is more than 5000 nM.
